Drawing on patent publication US8598206B2, “Trypsin-like serine protease inhibitors, and their preparation and use” (The Medicines Company (Leipzig) GmbH, priority 2010, dated 2013), this text covers Ki for 14 compounds.

Holding throughout (format): biochemical
Assay [1] has as its target plasmin (Homo sapiens (Human), UniProt P00747). Kind of assay: Determination of inhibition constants for human plasmin (chromogenic substrate). The conditions noted are these: 25° C., Chromozym PL substrate; read-out: h plasmin Ki. How it is done:
(§1) Determination of the Inhibition Constants for Human Plasmin (h Plasmin) and Human Plasma Kallikrein (h PK)
(§2) The inhibitory effect for the individual enzymes was determined in analogy to a previously disclosed method (Stürzebecher et al., J. Med. Chem., 40, 3091-3099 (1997)).
(§3) 200 μl of TBS (0.05 M trishydroxymethylaminomethane; 0.154 M NaCl, 2% ethanol, pH 8.0)
(§4) 25 μl of substrate (4 mM, 2 mM and 1 mM tosyl-Gly-Pro-Lys-pNA=Chromozym PL from LOXO for plasmin and 3 mM, 1.5 mM and 1 mM H-D-Pro-Phe-Arg-pNA=S2302 from Chromogenix for PK, dissolved in H2O)
(§5) 2 μL of a test compound solution in 50% v/v DMSO/water
(§6) 50 μl of enzyme solution (plasmin from Calbiochem: 1.7 mU/ml in 0.154 M NaCl+0.1% BSA m/v; plasma kallikrein from Enzyme Research Lab.: 62 ng/ml in 0.154 M NaCl+0.1% BSA m/v)
(§7) For zero order kinetics, the reaction was stopped after 20 min by adding 15 μl of acetic acid (80% v/v), and the absorption at 405 nm was determined using a Microplate Reader (Multiscan Ascent™, from Thermo). In the case of pseudo-first order kinetics, the reaction rates in the equilibrium state were determined by continuously recording the change in absorbance at 405 nm. The Ki values were calculated by parameter fitting in accordance with the rate equation for competitive inhibition using the GraFit software, version 4. The Ki values are the average of at least three determinations.

Assay [2] deals with plasma kallikrein (Homo sapiens (Human), UniProt P03952). Kind of assay: Determination of inhibition constants for human plasma kallikrein (chromogenic substrate). The conditions noted are these: 25° C., S2302 substrate; read-out: h PK Ki. The method, then:
as §1, §2, §3, §4, §5, §6, §7

In assay [3] the target is human activated protein C (Homo sapiens (Human), UniProt P04070). In words: Inhibition of human activated protein C. Particulars: Pefachrome PCa substrate; read-out: h aPC Ki. How it is done: as §2, §3, §5, §7
The target of assay [4] is human urinary kallikrein (Homo sapiens (Human), UniProt P06870). Kind of assay: Inhibition of human urinary kallikrein. The conditions noted are these: S-2266 substrate; read-out: h uKK Ki. How it is done: as §2, §3, §5, §7
The target in assay [5] is human activated C1s complement component (Homo sapiens (Human), UniProt P09871). Kind of assay: Inhibition of human C1s. Particulars: S2314 substrate; read-out: h C1s Ki. The method, then:
as §2, §3, §5, §7
Subcomponent “s” of Human Complement Component 1 (h C1s): Inhibition of human C1s was determined by the method described in [0092]-[0098] using native human activated C1s complement component from Calbiochem at 29 nM and Val-Ser-Arg-pNA (S2314) at 8 mM, 6 mM, and 4 mM as substrate; results are reported as Ki values (nanomolar).

Assay [6] has as its target human activated C1r complement component (Homo sapiens (Human), UniProt P00736). In words: Inhibition of human C1r. The conditions noted are these: S2314 substrate; read-out: h C1r Ki. The method, then: as §2, §3, §5, §7
Assay [7] deals with human alpha-thrombin (Homo sapiens (Human), UniProt P00734). In words: Inhibition of human Factor IIa. The conditions noted are these: Pefachrome tPA substrate; read-out: h FIIa Ki. How it is done: as §2, §3, §5, §7
Assay [8] has as its target human Factor Xa (Homo sapiens (Human), UniProt P00742). In words: Inhibition of human Factor Xa. Particulars: Pefachrome FXa substrate; read-out: h FXa Ki. The method, then: The inhibitory effect for the individual enzymes was determined in analogy to a previously disclosed method (Stürzebecher et al., J. Med. […] In the case of pseudo-first order kinetics, the reaction rates in the equilibrium state were determined by continuously recording the change in absorbance at 405 nm. […] The Ki values are the average of at least three determinations. Human Factor Xa (h FXa): […]

In assay [9] the target is human Factor XIa (Homo sapiens (Human), UniProt P03951). In words: Inhibition of human Factor XIa. Particulars: Pefachrome PCa substrate; read-out: h FXIa Ki. How it is done:
as §2, §3, §5, §7

For assay [10], the target named is human alpha-FXIIa (Homo sapiens (Human), UniProt P00748). In words: Inhibition of human alpha-Factor XIIa. The conditions noted are these: CHA-Gly-Arg-pNA substrate; read-out: h FXIIa Ki. How it is done:
as §2, §3, §5, §7

The target of assay [11] is human t-PA (Homo sapiens (Human), UniProt P00750). In words: Inhibition of human tissue-type plasminogen activator. The conditions noted are these: Pefachrome tPA substrate; read-out: h t-PA Ki. How it is done:
as §2, §3, §5, §7

The structures appear in SMILES notation. Bounds are passed on as bounds.

Sequence of plasmin (P00747 581-810): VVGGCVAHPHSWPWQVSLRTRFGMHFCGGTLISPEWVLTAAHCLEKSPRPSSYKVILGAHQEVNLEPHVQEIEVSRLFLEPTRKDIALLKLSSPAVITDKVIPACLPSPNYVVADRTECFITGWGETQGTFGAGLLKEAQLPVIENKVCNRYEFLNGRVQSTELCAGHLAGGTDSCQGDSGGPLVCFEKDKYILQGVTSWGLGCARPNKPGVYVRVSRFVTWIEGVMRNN
Sequence of plasmin (P00747 97-580 partner): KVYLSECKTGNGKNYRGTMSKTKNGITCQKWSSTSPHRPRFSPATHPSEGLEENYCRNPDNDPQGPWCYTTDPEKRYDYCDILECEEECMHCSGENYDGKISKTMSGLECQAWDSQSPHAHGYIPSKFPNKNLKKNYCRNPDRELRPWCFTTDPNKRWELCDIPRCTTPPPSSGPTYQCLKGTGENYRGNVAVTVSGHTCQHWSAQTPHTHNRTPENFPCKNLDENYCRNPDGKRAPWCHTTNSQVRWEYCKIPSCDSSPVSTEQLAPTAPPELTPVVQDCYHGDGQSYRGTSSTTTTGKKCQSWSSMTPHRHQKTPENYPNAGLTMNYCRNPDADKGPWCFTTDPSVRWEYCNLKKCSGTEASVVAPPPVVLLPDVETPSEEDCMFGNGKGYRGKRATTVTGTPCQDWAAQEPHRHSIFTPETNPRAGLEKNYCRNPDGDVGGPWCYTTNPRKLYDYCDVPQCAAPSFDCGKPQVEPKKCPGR
Sequence of human activated protein C (P04070 212-450): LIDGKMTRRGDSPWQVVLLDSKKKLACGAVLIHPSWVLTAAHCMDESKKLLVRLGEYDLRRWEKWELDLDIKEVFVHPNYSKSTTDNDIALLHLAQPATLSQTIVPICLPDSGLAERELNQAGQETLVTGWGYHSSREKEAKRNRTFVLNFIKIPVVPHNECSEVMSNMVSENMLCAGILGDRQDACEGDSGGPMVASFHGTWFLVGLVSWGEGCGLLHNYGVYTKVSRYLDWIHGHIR
Sequence of human activated protein C (P04070 43-197 partner): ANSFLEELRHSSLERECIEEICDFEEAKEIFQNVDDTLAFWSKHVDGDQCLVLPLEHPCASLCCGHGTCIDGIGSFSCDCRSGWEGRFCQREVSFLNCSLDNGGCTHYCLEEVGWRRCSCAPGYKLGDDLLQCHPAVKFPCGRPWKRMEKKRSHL
Sequence of human Factor Xa (P00742 235-488): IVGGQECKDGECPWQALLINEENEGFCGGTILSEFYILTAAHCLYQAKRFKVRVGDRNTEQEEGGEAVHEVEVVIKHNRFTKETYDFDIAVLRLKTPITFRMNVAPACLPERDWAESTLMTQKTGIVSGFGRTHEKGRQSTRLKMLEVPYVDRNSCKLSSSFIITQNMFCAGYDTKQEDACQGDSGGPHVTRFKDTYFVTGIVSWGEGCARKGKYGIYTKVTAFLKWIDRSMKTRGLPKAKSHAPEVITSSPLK
Sequence of human Factor Xa (P00742 41-179 partner): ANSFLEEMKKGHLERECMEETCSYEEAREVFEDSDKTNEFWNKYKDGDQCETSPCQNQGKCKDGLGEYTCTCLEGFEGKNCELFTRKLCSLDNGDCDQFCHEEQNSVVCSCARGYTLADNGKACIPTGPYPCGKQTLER
Sequence of human t-PA (P00750 36-562): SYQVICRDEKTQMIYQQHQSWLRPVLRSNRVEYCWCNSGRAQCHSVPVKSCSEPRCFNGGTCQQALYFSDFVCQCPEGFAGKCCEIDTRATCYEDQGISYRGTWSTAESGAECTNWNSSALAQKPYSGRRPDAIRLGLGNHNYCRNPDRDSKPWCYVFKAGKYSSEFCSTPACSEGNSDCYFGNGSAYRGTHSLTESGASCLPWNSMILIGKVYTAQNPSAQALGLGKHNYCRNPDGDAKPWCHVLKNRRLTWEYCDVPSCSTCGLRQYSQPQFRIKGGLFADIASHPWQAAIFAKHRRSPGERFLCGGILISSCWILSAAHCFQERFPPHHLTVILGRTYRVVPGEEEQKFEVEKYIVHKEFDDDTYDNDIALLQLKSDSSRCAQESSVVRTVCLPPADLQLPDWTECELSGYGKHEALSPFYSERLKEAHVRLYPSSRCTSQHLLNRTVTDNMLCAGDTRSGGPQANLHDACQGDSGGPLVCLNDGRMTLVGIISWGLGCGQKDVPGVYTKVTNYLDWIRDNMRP
Sequence of human Factor XIa (P03951 388-625): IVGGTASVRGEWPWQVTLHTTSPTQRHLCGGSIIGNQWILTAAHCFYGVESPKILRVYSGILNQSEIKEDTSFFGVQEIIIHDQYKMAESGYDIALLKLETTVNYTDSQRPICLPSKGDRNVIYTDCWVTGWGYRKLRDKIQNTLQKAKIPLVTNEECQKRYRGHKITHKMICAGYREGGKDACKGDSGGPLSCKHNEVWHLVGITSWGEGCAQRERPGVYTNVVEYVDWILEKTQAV
Sequence of human Factor XIa (P03951 19-387 partner): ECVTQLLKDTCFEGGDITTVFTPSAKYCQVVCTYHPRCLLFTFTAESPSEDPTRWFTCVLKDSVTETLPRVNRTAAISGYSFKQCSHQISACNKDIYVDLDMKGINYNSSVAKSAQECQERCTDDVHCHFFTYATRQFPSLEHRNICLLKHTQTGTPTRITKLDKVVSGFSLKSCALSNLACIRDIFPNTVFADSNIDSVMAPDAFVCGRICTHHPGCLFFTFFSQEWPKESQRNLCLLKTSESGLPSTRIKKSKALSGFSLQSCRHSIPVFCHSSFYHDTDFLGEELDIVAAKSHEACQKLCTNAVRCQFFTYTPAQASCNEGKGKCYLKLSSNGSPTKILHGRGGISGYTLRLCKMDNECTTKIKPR
Sequence of human alpha-FXIIa (P00748 373-615): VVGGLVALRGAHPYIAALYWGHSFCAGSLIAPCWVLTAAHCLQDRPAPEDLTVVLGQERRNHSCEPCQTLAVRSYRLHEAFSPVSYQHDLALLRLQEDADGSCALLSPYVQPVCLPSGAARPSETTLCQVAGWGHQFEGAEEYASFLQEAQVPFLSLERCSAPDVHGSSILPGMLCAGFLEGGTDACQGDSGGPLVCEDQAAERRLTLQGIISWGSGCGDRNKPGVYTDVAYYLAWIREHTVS
Sequence of human alpha-FXIIa (P00748 20-372 partner): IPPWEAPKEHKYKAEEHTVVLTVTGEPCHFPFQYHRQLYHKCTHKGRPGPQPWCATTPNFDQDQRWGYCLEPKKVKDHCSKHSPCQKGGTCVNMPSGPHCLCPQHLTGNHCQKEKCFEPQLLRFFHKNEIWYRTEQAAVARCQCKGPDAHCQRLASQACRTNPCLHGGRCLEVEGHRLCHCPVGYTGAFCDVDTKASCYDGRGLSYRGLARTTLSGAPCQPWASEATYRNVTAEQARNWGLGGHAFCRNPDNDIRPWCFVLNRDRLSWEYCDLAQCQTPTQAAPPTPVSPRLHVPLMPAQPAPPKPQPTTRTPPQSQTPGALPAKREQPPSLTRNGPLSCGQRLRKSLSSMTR
Sequence of human urinary kallikrein (P06870 25-262): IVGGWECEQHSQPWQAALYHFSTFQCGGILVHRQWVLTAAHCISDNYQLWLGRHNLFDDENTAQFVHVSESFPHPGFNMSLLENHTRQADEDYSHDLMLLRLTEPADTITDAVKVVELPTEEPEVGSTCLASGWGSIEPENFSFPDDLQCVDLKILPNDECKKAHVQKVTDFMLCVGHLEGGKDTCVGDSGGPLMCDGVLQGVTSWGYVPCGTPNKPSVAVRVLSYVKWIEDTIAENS
Sequence of human activated C1s complement component (P09871 438-688): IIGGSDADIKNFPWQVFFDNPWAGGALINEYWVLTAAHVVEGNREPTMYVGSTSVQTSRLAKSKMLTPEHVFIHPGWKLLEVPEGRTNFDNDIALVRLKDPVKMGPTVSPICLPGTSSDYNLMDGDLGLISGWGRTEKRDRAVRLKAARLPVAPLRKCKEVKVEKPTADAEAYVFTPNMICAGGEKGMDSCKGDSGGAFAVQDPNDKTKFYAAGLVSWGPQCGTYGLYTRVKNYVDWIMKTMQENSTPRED
Sequence of human activated C1s complement component (P09871 16-437 partner): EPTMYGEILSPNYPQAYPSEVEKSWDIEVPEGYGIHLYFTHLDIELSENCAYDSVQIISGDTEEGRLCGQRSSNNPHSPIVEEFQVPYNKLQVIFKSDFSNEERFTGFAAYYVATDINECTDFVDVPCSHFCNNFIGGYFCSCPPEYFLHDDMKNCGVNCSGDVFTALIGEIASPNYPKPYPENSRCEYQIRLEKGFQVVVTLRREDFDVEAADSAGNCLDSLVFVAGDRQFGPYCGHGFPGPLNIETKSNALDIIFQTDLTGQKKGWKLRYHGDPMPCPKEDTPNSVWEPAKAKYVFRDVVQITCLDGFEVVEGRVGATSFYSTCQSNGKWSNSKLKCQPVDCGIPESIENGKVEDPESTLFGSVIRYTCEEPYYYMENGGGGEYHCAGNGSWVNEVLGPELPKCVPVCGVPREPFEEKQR
Sequence of plasma kallikrein (P03952 391-638): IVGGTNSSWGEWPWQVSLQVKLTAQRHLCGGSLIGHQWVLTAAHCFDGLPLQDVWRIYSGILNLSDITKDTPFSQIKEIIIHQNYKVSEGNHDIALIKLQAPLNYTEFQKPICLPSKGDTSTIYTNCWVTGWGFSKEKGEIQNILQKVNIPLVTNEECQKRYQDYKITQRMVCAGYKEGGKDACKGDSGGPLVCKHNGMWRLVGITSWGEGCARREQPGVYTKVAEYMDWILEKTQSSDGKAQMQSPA
Sequence of plasma kallikrein (P03952 20-390 partner): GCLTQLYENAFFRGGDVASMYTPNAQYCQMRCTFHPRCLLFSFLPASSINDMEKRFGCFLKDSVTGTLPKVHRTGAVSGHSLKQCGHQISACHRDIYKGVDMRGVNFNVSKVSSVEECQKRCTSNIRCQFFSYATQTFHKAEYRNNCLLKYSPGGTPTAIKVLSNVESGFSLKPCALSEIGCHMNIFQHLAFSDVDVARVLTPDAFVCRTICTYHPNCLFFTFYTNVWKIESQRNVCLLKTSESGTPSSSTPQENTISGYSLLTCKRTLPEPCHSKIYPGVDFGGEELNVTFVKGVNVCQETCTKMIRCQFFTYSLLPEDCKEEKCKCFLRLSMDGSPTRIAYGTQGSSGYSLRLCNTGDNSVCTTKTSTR

On to `COC(=O)N1CCC(CCC[C@@H](NS(=O)(=O)Cc2ccccc2)C(=O)N[C@@H](CCC2CCNCC2)C(=O)NCc2ccc(C(=N)N)cc2)CC1`, for which the Ki is 0.001 µM in assay [1]; 0.0015 µM in assay [2]; 0.8 µM in assay [3]; more than 100 µM in [4]; 6.5 µM in [5]; more than 100 µM in [6]. Further, the inhibition constant (Ki) in assay [7] worked out at 3.6 µM; in assay [8], 0.4 µM; in [9], 0.6 µM; in assay [10] it was 0.4 µM.

In the case of `N=C(N)c1ccc(CNC(=O)[C@H](CCC2CCNCC2)NC(=O)[C@@H](CCCn2cnnn2)NS(=O)(=O)Cc2ccccc2)cc1`, the Ki is 0.008 µM in [1]; 0.0053 µM in assay [2]; 1.3 µM in assay [3]; more than 200 µM in assay [4]; more than 10 µM in assay [5]; 4.7 µM in [7]. For the same compound, the figures for the Ki in assay [8] and in [9] were 2.4 µM and 1.4 µM, respectively.

Turning to `CC(=O)N1CCC(CC[C@@H](NS(=O)(=O)Cc2ccccc2)C(=O)N[C@@H](CCC2CCNCC2)C(=O)NCc2ccc(C(=N)N)cc2)CC1`, the Ki was 0.0018 µM in assay [1]; 0.005 µM in assay [2]; 1.2 µM in [3]; more than 20 µM in assay [4]; more than 20 µM in [5]; more than 40 µM in [6]. In addition, the Ki in [7] was 8 µM; in assay [8], 1.9 µM; in [9], 1.4 µM; in assay [10], 0.53 µM; in assay [11], 4.8 µM.

In the case of `N=C(N)c1ccc(CNC(=O)[C@H](CCC2CCNCC2)NC(=O)[C@@H](CCCc2cc[n+]([O-])cc2)NS(=O)(=O)Cc2ccccc2)cc1` [drawing 117], the Ki is 0.001 µM in assay [1]; 0.004 µM in assay [2]; 0.85 µM in assay [3]; more than 200 µM in [4]; 10 µM in assay [5]; more than 30 µM in [6]. Moreover, the Ki in assay [7] was determined as 4.9 µM; in assay [8] it was 0.4 µM; in [9], 1.4 µM; in [10], 0.87 µM; in [11] it was 2.4 µM.

Take `CC(C)C(=O)N1CCC(CC[C@@H](NS(=O)(=O)Cc2ccccc2)C(=O)N[C@@H](CCC2CCNCC2)C(=O)NCc2ccc(C(=N)N)cc2)CC1`: the Ki in assay [1] was 0.0006 µM; in assay [2], 0.0015 µM; in assay [3], 1.7 µM; in assay [4], more than 200 µM; in [5] it was more than 25 µM; in assay [6], more than 30 µM. The inhibition constant (Ki) in assay [7] is 13 µM; in assay [8], 3.2 µM; in assay [9], 0.92 µM; in assay [10], 1.3 µM; in [11], 6.5 µM.

With `N=C(N)c1ccc(CNC(=O)[C@H](CCC2CCNCC2)NC(=O)[C@@H](CCc2ccncc2)NS(=O)(=O)Cc2ccccc2)cc1`, the Ki is 0.0015 µM in [1]; 0.009 µM in assay [2]; 0.027 µM in assay [3]; more than 200 µM in assay [4]; 2 µM in assay [5]; more than 20 µM in assay [6]. The Ki in assay [7] was determined as 3.9 µM; in [8], 0.02 µM; in [9], 0.5 µM.

Consider `N=C(N)c1ccc(CNC(=O)[C@H](CCC2CCNCC2)NC(=O)[C@@H](CCCc2ccccc2)NS(=O)(=O)Cc2cccc(C(=O)O)c2)cc1`, for which the Ki is 0.0038 µM in assay [1]; 0.003 µM in assay [2]; 0.31 µM in assay [3]; more than 20 µM in [4]; 1.2 µM in assay [5]; more than 20 µM in assay [6]. Moreover, the values for the Ki in assay [7], in [8] and in [9] were 4.4 µM, 2.4 µM and 0.07 µM, respectively.

For `COCC(=O)N1CCC(CC[C@@H](NS(=O)(=O)Cc2ccccc2)C(=O)N[C@@H](CCC2CCNCC2)C(=O)NCc2ccc(C(=N)N)cc2)CC1`, the inhibition constant Ki was 0.0012 µM in [1]; 0.0013 µM in assay [2]; 1.2 µM in assay [3]; more than 100 µM in assay [4]; 20 µM in assay [5]; more than 50 µM in assay [6]. For the same compound, the Ki in assay [7] is 4.5 µM; in assay [8], 1.6 µM; in [9], 1.4 µM; in [10], 0.68 µM; in assay [11] it was 4.7 µM.

For `N=C(N)c1ccc(CNC(=O)[C@H](CCC2CCNCC2)NC(=O)[C@H](NS(=O)(=O)Cc2ccccc2)c2ccccc2)cc1`, the Ki in assay [1] is 0.0022 µM; in assay [2], 0.02 µM; in [3], 0.21 µM; in assay [7] it was 1.7 µM; in assay [8], 1.6 µM; in assay [9], 1 µM.

On to `CCCC(=O)N1CCC(CC[C@@H](NS(=O)(=O)Cc2ccccc2)C(=O)N[C@@H](CCC2CCNCC2)C(=O)NCc2ccc(C(=N)N)cc2)CC1`, for which the Ki was 0.0006 µM in [1]; 0.002 µM in assay [2]; 1.1 µM in assay [3]; more than 200 µM in assay [4]; more than 10 µM in assay [5]; more than 15 µM in assay [6]. Also, the Ki in [7] was determined as 5.5 µM; in assay [8], 2.2 µM; in [9], 0.87 µM; in assay [10], 0.8 µM; in assay [11] it was 6.1 µM.

Turning to `N=C(N)c1ccc(CNC(=O)[C@H](CCC2CCNCC2)NC(=O)[C@@H](CCCC2CCNCC2)NS(=O)(=O)Cc2ccccc2)cc1`, the Ki is 0.002 µM in assay [1]; 0.0075 µM in assay [2]; 0.4 µM in [3]; more than 50 µM in [4]; 8 µM in assay [5]; more than 50 µM in assay [6]. Also, the Ki in assay [7] came out at 0.8 µM; in assay [8] it was 0.3 µM; in assay [9] it was 0.8 µM.

Consider `N=C(N)c1ccc(CNC(=O)[C@H](CCC2CCNCC2)NC(=O)[C@@H](CCCc2ccccc2)NS(=O)(=O)Cc2ccccc2)cc1`, for which the Ki in assay [1] is 0.00025 µM; in assay [2] it was 0.0015 µM; in assay [3], 0.555 µM; in [4], more than 50 µM; in [5], more than 5 µM; in [7], 0.24 µM. In addition, the Ki in [8] was 1.1 µM; in [9] it was 0.135 µM; in assay [10], 3 µM; in [11], 1.7 µM.

As for `N=C(N)c1ccc(CNC(=O)[C@H](CCC2CCNCC2)NC(=O)[C@@H](CCc2cc[n+]([O-])cc2)NS(=O)(=O)Cc2ccccc2)cc1`, the inhibition constant Ki in assay [1] was 0.005 µM; in [2], 0.02 µM; in assay [3] it was 0.25 µM; in assay [4], more than 100 µM; in assay [5], 4.2 µM; in [6], more than 50 µM. The values for the inhibitory constant (Ki) in [7], in assay [8] and in assay [9] were 9 µM, 0.12 µM and 2.5 µM, respectively.

`N=C(N)c1ccc(CNC(=O)[C@H](CCC2CCNCC2)NC(=O)[C@@H](CCC2CCNCC2)NS(=O)(=O)Cc2ccccc2)cc1`: the Ki in [1] is 0.003 µM; in [2] it was 0.0075 µM; in assay [3] it was 0.06 µM; in assay [4], more than 100 µM; in assay [5] it was more than 25 µM; in assay [6], more than 100 µM. Besides, the Ki in [7] worked out at 4.2 µM; in assay [8] it was 0.09 µM; in [9] it was 1.4 µM.

The term Ki denotes the dissociation constant of the complex between target and ligand, obtained from inhibition or displacement.
